Results published in ChEMBL document CHEMBL1136375, “Design and synthesis of spiro-cyclopentenyl and spiro-[1,3]-dithiolanyl substituted pyrrolidine-5,5-trans-lactams as inhibitors of hepatitis C virus NS3/4A protease” (Bioorg Med Chem Lett, 2003).

Assays:
[1] = In vitro stability behavior at 4 hr; format: physicochemical; settings: read-out: Turnover
Hepatitis C virus [2] = test: Inhibitory activity against hepatitis C virus protease enzyme(HCV) by using ELISA replicon assay; format: functional, organism-based, Hepacivirus hominis
Hepatitis C virus [3] = test: Inhibitory activity against hepatitis C virus protease enzyme(HCV) NS3/4A; format: functional, Hepacivirus hominis

Row | Compound | degraded at 4 h [1] [%] | IC50 (Hepatitis C virus [2]) [µM] | k obs / 1 (Hepatitis C virus [3]) [M⁻¹ s⁻¹]
1 | CC(C)C(NC(=O)OC(C)(C)C)C(=O)N1CC[C@H]2[C@H]1C1(CC=CC1)C(=O)N2C(=O)C1CC1 (relative stereo) |  |  | 19
2 | CC(C)C(=O)N1C(=O)C2(SCCS2)[C@@H]2[C@@H]1CCN2C(=O)C(NC(=O)OC(C)(C)C)C(C)C (some centres not stated) | > 50 | 17 | 362
3 | CC(C)[C@H](NC(=O)OC(C)(C)C)C(=O)N1CC[C@H]2[C@H]1C1(CCC1)C(=O)N2C(=O)C1CC1 | 27 | 4 | 400
4 | CCN(CC)C(=O)N1C(=O)C2(CCC2)[C@@H]2[C@@H]1CCN2C(=O)[C@@H](NC(=O)OC(C)(C)C)C(C)C |  |  | 3.3
5 | C=C(C)C(=O)N1C(=O)C2(CCC2)[C@@H]2[C@@H]1CCN2C(=O)[C@@H](NC(=O)OC(C)(C)C)C(C)C |  |  | 24

Continued, in another order:

Row | degraded at 4 h [1] [%] | IC50 (Hepatitis C virus [2]) [µM] | Compound | k obs / 1 (Hepatitis C virus [3]) [M⁻¹ s⁻¹]
6 | > 50 | > 100 | CC(C)C(NC(=O)OC(C)(C)C)C(=O)N1CC[C@H]2[C@H]1C1(SCCS1)C(=O)N2C(=O)C1CC1 (relative stereo) | 621
7 |  | 7.9 | CSC(=O)N1C(=O)C2(CCC2)[C@@H]2[C@@H]1CCN2C(=O)[C@@H](NC(=O)OC(C)(C)C)C(C)C | 154
8 | 5 | 3.1 | CC(C)C(=O)N1C(=O)C2(CCC2)[C@@H]2[C@@H]1CCN2C(=O)[C@@H](NC(=O)OC(C)(C)C)C(C)C (relative stereo) | 166
